Publication PMC8909834, “An Orally Bioavailable and Highly Efficacious Inhibitor of CDK9/FLT3 for the Treatment of Acute Myeloid Leukemia” (Cancers, 2022)

Experiments:
Test in all cases: Kinase Hotspot radiolabel assay
Assay type in all cases: biochemical
Conditions in all cases: read-out: % Residual Activity
CAMKK2 = biological target: T1, CAMKK2 (Homo sapiens, UniProt Q96RR4)
T1 construct: purchased Reaction Biology Corporation (Kinase HotSpot)
Method: (§1) Kinase assay. The ADP Glo^TM kinase assay (Promega, Madison, WI, USA) was used to assess the inhibition by CDDD11-8 of CDKs 1, 2, 4, 6, 7, and 9, as well as the mutant isoforms of FLT3. The assays were performed in accord with the manufacturer’s protocol (Promega) as described previously. Briefly, serial three-fold dilutions of CDDD11-8 were prepared in 100% DMSO from a 2 mM stock solution, followed by 1:40 dilution into Milli-Q water. Subsequently, 1 µL of each sample was incubated with 4 µL of kinase mixture containing a particular CDK enzyme and its substrate, standard kinase buffer [3 mM MgCl2, 50 mM HEPES-NaOH pH 7.5, 3 mM MnCl2, 3 µM Na-orthovanadate, 1 mM dithiothreitol (DTT)], kinase dilution buffer (containing 0.25 mg/mL PEG20,000, 50 mM HEPES-NaOH pH 7.5, 1 mM DTT), and ATP at 37 °C for 30 to 40 min. The final reaction mixture contained 0.5% DMSO in all samples, and the applied kinase concentrations were 1, 1, 10, 40, 20, and 50 nM for CDK1, 2, 4, 6, 7, and 9, respectively. The reaction was stopped by adding ADP-Glo reagent and the mixture was incubated further in the dark at room temperature for 40 min. As a final step, kinase detection reagent was added to each mixture and incubated at room temperature for 30 to 60 min. Luminescence was read using an EnVision® multilabel plate reader (PerkinElmer, Beaconsfield, UK), and half-maximum inhibitory concentrations (IC50) were calculated using a non-linear regression model with a variable slope, plotting log (inhibitor concentration) vs. response using the following formula: Ar%=Bottom+Top−Bottom/1+Inhibitor Concentration/IC50^HillSlope where the relative activity Ar (%) is the signal relative to the controls, IC50 is the half maximum concentration, Hillslope is the steepness of the dose-response curve, Top and Bottom are plateaus reflecting the maximum and minimum in responses on the Y-axis (GraphPad Prism version 7, San Diego, CA, USA). Ki values were calculated from the IC50 using the Cheng−Prusoff equation [32]. Extensive specificity assessment was carried out by Reaction Biology Corporation (Malvern, PA, USA) with 369 kinases using 1 µM CDDD11-8 concentration in a Kinase Hotspot radiolabel assay (for experimental details, please see (Reaction Biology https://www.reactionbiology.com/). Subsequently, Ki values were determined for kinases with greater than 90% inhibition.

EPHA7 = biological target: T2, EPHA7 (Homo sapiens, UniProt Q15375)
T2 construct: purchased Reaction Biology Corporation (Kinase HotSpot)
Method: as §1

LATS1 = biological target: T3, LATS1 (Homo sapiens, UniProt O95835)
T3 construct: purchased Reaction Biology Corporation (Kinase HotSpot)
Method: as §1

MST1/STK4 = biological target: T4, MST1/STK4 (Homo sapiens, UniProt Q13043)
T4 construct: purchased Reaction Biology Corporation (Kinase HotSpot)
Method: as §1

MEKK3 = biological target: T5, MEKK3 (Homo sapiens, UniProt Q99759)
T5 construct: purchased Reaction Biology Corporation (Kinase HotSpot)
Method: as §1

MST4 = biological target: T6, MST4 (Homo sapiens, UniProt Q9P289)
T6 construct: purchased Reaction Biology Corporation (Kinase HotSpot)
Method: as §1

CDK2/Cyclin A1 = biological target: T7, CDK2/Cyclin A1 (Homo sapiens, UniProt P24941)
T7 construct: purchased Reaction Biology Corporation (Kinase HotSpot)
Method: as §1

BMX/ETK = biological target: T8, BMX/ETK (Homo sapiens, UniProt P51813)
T8 construct: purchased Reaction Biology Corporation (Kinase HotSpot)
Method: as §1

CHK1 = biological target: T9, CHK1 (Homo sapiens, UniProt O14757)
T9 construct: purchased Reaction Biology Corporation (Kinase HotSpot)
Method: as §1

WNK2 = biological target: T10, WNK2 (Homo sapiens, UniProt Q9Y3S1)
T10 construct: purchased Reaction Biology Corporation (Kinase HotSpot)
Method: as §1

ERK1 = biological target: T11, ERK1 (Homo sapiens, UniProt P27361)
T11 construct: purchased Reaction Biology Corporation (Kinase HotSpot)
Method: as §1

ALK = biological target: T12, ALK (Homo sapiens, UniProt Q9UM73)
T12 construct: purchased Reaction Biology Corporation (Kinase HotSpot)
Method: as §1

STK38/NDR1 = biological target: T13, STK38/NDR1 (Homo sapiens, UniProt Q15208)
T13 construct: purchased Reaction Biology Corporation (Kinase HotSpot)
Method: as §1

MLK2/MAP3K10 = biological target: T14, MLK2/MAP3K10 (Homo sapiens, UniProt Q02779)
T14 construct: purchased Reaction Biology Corporation (Kinase HotSpot)
Method: as §1

DDR1 = biological target: T15, DDR1 (Homo sapiens, UniProt Q08345)
T15 construct: purchased Reaction Biology Corporation (Kinase HotSpot)
Method: as §1

GRK6 = biological target: T16, GRK6 (Homo sapiens, UniProt P43250)
T16 construct: purchased Reaction Biology Corporation (Kinase HotSpot)
Method: as §1

SIK3 = biological target: T17, SIK3 (Homo sapiens, UniProt Q9Y2K2)
T17 construct: purchased Reaction Biology Corporation (Kinase HotSpot)
Method: as §1

DYRK3 = biological target: T18, DYRK3 (Homo sapiens, UniProt O43781)
T18 construct: purchased Reaction Biology Corporation (Kinase HotSpot)
Method: as §1

TSSK3/STK22C = biological target: T19, TSSK3/STK22C (Homo sapiens, UniProt Q96PN8)
T19 construct: purchased Reaction Biology Corporation (Kinase HotSpot)
Method: as §1

PLK1 = biological target: T20, PLK1 (Homo sapiens, UniProt P53350)
T20 construct: purchased Reaction Biology Corporation (Kinase HotSpot)
Method: as §1

MLK3/MAP3K11 = biological target: T21, MLK3/MAP3K11 (Homo sapiens, UniProt Q16584)
T21 construct: purchased Reaction Biology Corporation (Kinase HotSpot)
Method: as §1

MEK1 = biological target: T22, MEK1 (Homo sapiens, UniProt Q02750)
T22 construct: purchased Reaction Biology Corporation (Kinase HotSpot)
Method: as §1

CAMK2b = biological target: T23, CAMK2b (Homo sapiens, UniProt Q13554)
T23 construct: purchased Reaction Biology Corporation (Kinase HotSpot)
Method: as §1

DYRK1/DYRK1A = biological target: T24, DYRK1/DYRK1A (Homo sapiens, UniProt Q13627)
T24 construct: purchased Reaction Biology Corporation (Kinase HotSpot)
Method: as §1

CDK9/cyclin T2 = biological target: T25, CDK9/cyclin T2 (Homo sapiens, UniProt P50750)
T25 construct: purchased Reaction Biology Corporation (Kinase HotSpot)
Method: as §1

STK33 = biological target: T26, STK33 (Homo sapiens, UniProt Q9BYT3)
T26 construct: purchased Reaction Biology Corporation (Kinase HotSpot)
Method: as §1

ROS/ROS1 = biological target: T27, ROS/ROS1 (Homo sapiens, UniProt P08922)
T27 construct: purchased Reaction Biology Corporation (Kinase HotSpot)
Method: as §1

STK38L/NDR2 = biological target: T28, STK38L/NDR2 (Homo sapiens, UniProt Q9Y2H1)
T28 construct: purchased Reaction Biology Corporation (Kinase HotSpot)
Method: as §1

MKK7 = biological target: T29, MKK7 (Homo sapiens, UniProt O14733)
T29 construct: purchased Reaction Biology Corporation (Kinase HotSpot)
Method: as §1

ZAP70 = biological target: T30, ZAP70 (Homo sapiens, UniProt P43403)
T30 construct: purchased Reaction Biology Corporation (Kinase HotSpot)
Method: as §1

T26 sequence (Q9BYT3 whole entry): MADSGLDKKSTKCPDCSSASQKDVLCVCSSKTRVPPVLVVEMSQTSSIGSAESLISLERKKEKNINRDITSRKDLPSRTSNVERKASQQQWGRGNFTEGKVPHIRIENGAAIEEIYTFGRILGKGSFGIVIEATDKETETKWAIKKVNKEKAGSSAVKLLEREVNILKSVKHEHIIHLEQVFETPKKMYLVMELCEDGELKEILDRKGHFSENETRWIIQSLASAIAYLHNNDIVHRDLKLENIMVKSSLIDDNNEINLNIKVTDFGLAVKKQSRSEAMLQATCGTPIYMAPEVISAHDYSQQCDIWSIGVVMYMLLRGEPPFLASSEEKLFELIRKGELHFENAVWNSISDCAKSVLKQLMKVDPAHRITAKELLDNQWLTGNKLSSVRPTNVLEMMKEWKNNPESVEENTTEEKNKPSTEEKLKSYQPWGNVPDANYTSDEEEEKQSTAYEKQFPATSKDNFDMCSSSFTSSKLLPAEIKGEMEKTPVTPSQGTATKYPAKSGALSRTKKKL
T19 sequence (Q96PN8 whole entry): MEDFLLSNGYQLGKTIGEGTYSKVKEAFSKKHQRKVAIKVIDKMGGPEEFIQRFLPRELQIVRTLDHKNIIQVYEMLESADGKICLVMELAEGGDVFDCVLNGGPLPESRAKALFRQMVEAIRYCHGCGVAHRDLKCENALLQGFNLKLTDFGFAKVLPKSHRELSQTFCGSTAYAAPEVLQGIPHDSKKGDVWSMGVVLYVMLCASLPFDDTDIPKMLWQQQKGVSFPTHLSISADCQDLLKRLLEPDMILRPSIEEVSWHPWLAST
T29 sequence (O14733 whole entry): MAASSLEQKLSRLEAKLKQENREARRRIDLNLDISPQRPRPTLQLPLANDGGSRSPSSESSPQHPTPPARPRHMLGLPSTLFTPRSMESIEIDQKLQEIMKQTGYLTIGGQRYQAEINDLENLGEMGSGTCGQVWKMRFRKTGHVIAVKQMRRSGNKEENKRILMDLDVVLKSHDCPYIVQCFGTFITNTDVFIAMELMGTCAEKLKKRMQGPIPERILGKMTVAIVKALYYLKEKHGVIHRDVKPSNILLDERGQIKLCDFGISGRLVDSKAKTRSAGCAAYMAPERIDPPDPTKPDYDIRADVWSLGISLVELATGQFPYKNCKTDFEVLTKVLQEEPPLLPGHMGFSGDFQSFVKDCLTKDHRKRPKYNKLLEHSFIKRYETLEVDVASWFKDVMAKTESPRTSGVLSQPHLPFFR
T6 sequence (Q9P289 whole entry): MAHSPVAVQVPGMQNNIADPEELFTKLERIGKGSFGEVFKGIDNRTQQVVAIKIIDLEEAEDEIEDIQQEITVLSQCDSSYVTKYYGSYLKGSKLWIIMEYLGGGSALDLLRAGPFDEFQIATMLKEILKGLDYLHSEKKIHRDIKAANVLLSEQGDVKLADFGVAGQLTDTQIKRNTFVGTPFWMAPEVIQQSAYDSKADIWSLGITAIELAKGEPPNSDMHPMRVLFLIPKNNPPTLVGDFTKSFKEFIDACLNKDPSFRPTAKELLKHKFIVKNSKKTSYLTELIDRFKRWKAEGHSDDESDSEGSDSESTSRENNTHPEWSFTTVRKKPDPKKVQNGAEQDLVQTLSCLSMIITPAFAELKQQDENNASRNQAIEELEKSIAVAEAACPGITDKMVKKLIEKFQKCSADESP
T13 sequence (Q15208 whole entry): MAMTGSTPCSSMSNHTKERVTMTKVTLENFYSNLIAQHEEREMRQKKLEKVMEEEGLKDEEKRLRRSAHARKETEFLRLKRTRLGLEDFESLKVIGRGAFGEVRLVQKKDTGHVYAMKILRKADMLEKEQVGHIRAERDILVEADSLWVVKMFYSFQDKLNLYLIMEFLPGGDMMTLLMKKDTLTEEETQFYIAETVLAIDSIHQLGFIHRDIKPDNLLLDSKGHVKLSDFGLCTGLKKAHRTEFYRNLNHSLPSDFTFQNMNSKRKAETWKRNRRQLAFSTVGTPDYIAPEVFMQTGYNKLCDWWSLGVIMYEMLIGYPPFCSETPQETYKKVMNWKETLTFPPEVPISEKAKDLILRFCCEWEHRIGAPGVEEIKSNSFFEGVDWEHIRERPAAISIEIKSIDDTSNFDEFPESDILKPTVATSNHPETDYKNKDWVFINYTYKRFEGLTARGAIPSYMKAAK
T5 sequence (Q99759 whole entry): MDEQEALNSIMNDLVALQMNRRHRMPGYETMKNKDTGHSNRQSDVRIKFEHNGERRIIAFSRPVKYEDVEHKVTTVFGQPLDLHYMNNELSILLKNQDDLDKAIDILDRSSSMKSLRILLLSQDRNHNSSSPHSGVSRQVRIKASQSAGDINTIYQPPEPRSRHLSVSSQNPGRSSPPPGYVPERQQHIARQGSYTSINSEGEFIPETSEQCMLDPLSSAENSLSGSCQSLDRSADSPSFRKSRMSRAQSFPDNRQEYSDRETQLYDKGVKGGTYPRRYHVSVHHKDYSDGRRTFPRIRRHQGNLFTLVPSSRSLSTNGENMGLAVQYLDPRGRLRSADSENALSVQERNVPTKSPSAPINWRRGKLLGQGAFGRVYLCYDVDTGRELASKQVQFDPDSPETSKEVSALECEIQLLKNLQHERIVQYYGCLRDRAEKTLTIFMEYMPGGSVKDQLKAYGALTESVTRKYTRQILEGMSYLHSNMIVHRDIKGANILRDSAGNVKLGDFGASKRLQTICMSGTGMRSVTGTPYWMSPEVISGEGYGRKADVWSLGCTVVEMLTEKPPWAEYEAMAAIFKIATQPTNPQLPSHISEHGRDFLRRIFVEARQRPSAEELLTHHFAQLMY
T10 sequence (Q9Y3S1 whole entry): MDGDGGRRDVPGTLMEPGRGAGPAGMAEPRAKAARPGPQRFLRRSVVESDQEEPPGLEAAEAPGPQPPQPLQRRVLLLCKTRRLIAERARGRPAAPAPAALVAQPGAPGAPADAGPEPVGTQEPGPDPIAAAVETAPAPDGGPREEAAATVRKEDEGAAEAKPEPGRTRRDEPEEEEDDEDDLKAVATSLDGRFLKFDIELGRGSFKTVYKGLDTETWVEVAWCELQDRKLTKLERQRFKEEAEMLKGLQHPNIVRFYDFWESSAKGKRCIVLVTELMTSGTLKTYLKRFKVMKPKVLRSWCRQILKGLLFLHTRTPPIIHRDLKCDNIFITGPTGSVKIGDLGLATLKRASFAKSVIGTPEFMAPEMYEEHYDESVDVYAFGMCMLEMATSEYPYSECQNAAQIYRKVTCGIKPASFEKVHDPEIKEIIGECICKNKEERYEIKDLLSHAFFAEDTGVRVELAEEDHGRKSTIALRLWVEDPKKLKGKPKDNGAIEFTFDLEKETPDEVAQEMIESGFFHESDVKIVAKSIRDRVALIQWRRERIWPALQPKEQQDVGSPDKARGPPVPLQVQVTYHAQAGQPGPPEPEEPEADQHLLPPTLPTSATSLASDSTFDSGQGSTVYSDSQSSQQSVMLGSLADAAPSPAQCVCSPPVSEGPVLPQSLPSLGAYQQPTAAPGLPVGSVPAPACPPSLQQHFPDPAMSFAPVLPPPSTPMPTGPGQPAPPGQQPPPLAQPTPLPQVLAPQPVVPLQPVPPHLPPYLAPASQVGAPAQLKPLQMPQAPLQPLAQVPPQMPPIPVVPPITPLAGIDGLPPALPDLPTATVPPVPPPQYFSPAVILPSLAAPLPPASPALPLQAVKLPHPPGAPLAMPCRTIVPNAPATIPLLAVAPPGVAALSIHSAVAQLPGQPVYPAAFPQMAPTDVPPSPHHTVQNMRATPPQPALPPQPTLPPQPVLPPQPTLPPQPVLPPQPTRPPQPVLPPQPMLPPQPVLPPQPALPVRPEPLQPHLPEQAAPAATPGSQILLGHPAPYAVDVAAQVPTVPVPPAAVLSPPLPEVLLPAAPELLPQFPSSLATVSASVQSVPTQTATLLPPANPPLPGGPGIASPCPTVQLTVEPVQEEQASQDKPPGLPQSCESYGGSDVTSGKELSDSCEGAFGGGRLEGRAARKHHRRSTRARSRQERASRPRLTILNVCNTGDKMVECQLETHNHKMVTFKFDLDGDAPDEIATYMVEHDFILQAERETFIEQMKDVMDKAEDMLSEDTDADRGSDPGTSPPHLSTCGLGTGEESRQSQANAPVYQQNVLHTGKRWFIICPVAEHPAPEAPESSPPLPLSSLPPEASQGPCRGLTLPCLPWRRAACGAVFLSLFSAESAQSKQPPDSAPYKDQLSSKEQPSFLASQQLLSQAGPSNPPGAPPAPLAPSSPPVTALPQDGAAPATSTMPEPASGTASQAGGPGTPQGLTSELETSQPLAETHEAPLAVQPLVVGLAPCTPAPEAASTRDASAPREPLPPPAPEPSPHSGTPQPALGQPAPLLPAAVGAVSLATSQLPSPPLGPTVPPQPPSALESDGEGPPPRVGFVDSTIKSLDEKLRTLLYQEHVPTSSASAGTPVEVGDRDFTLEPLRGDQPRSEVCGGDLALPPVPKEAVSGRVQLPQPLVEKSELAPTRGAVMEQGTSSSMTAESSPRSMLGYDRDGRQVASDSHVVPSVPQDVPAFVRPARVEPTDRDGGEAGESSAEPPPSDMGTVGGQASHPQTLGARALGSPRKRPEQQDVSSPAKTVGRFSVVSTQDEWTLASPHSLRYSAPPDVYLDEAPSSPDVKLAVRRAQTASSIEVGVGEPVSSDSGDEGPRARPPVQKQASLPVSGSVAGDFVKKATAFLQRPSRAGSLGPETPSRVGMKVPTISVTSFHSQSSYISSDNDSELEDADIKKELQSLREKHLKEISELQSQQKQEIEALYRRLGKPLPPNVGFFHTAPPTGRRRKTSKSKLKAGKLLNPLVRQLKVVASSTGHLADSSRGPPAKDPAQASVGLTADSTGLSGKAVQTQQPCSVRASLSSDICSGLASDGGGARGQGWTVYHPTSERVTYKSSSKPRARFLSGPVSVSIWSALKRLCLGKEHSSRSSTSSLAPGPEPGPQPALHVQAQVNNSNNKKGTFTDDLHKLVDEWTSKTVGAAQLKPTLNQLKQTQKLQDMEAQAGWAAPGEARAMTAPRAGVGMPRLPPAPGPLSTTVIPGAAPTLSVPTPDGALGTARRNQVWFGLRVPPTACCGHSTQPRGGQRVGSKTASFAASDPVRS

Compound: Cc1cnc(N[C@H]2CC[C@H](N)CC2)nc1-c1cnc2ccc(-c3ccccc3)cn12 [CDDD11-8]
- remaining activity at 1 µM (CAMKK2): 47.7%
- remaining activity at 1 µM (EPHA7): 105%
- remaining activity at 1 µM (LATS1): 57.4%
- remaining activity at 1 µM (MST1/STK4): 8.89%
- remaining activity at 1 µM (MEKK3): 109%
- remaining activity at 1 µM (MST4): 92.9%
- remaining activity at 1 µM (CDK2/Cyclin A1): 55.7%
- remaining activity at 1 µM (BMX/ETK): 71.2%
- remaining activity at 1 µM (CHK1): 95.2%
- remaining activity at 1 µM (WNK2): 94.5%
- remaining activity at 1 µM (ERK1): 97.3%
- remaining activity at 1 µM (ALK): 68.9%
- remaining activity at 1 µM (STK38/NDR1): 93.3%
- remaining activity at 1 µM (MLK2/MAP3K10): 76.5%
- remaining activity at 1 µM (DDR1): 63.1%
- remaining activity at 1 µM (GRK6): 98.5%
- remaining activity at 1 µM (SIK3): 59.9%
- remaining activity at 1 µM (DYRK3): 23.2%
- remaining activity at 1 µM (TSSK3/STK22C): 98.3%
- remaining activity at 1 µM (PLK1): 97.3%
- remaining activity at 1 µM (MLK3/MAP3K11): 45.1%
- remaining activity at 1 µM (MEK1): 98.9%
- remaining activity at 1 µM (CAMK2b): 23.5%
- remaining activity at 1 µM (DYRK1/DYRK1A): 63.9%
- remaining activity at 1 µM (CDK9/cyclin T2): 2.35%
- remaining activity at 1 µM (STK33): 70.3%
- remaining activity at 1 µM (ROS/ROS1): 41.5%
- remaining activity at 1 µM (STK38L/NDR2): 96.7%
- remaining activity at 1 µM (MKK7): 95.4%
- remaining activity at 1 µM (ZAP70): 101%
